Test results published in patent US4107308A, “Imidazo[1,5-d]-as-triazines” (American Cyanamid Company, priority 1977, dated 1978).

Columns and labels:
[1] = system: spontaneous hypertensive rats; experiment: Anti-hypertensive test in conscious spontaneous hypertensive rats, mean arterial blood pressure by femoral artery puncture; format: in vivo, rat; settings: 100 mg./kg. by gavage in 2% starch, second identical dose at the 24th hour, vehicle controls 166
Protocol: These compounds have been tested pharmacologically and found to have such properties with a desirable wide spread between does producing lowered blood pressure and toxic symptoms. In determining this effect of these compounds on hypertension, adult male, 16-20 weeks old, spontaneous hypertensive rats from Taconic Farms, Germantown, New York, weighing about 300 grams are used. The rats are dosed by gavage with the test compounds at the indicated dose in mg. per kg. of body weight. All doses of drug were suspended in 2% starch (2 ml./kg.). A second identical dose of the test compound is given at the 24th hour. The mean arterial blood pressure (MAP) of the conscious rats is measured directly by femoral artery puncture at the 28th hour.

[2] = system: cyclic-AMP phosphodiesterase (mouse skin PDE); experiment: Mouse skin phosphodiesterase (PDE) inhibition test (A); format: biochemical; set-up: key: Active: A compound is considered active if it inhibits more than theophylline, that is, to 50% of control of 1 mM concentration of compound, or to 80% of control for 0.05 mM concentration of compound; settings: final concentration of test compound 10 μg./ml.; epidermal homogenate supernatant of hairless mice

Row | Mouse Skin Phosphodiesterase (A) [2] | SMILES | MAP (mm. Hg) 28th hour [1] [mm. Hg] | herbicidal activity (Herbicidal activity)
1 | Active | c1cc(Nc2nncc3cncn23)n[nH]1 [4-(3-Pyrazolylamino)-imidazo[1,5-d]-as-triazine] | 134 | 
2 | Active | CN(C)CCNc1nncc2cncn12 [4-[(2-Dimethylaminoethyl)amino]-imidazo[1,5-d]-as-triazine] |  | 
3 |  | CNc1nncc2cncn12 [4-methylamino-imidazo[1,5-d]-as-triazine, 4-Methylamino-imidazo[1,5-d]-as-triazine] | 131 | 
4 |  | CCCc1nc(C)c2cnnc(SC)n12 [Example 61, 8-Methyl-4-(methylthio)-6-propylimidazo[1,5-d]-as-triazine] |  | possesses herbicidal activity
